In this assay the target is recombinant Mcl-1 (residues 172-327) (Homo sapiens (Human), UniProt Q07820). Nature of the assay: Bak peptide fluorescence polarization anisotropy competition assay, Mcl-1. The note with it: read-out: Ki for inhibition of Mcl-1. The format is binding.
The mark [1] stands for this setting: Table 2, Ki range, FITC-Bak peptide 10 nM, Mcl-1 14 nM.

SMILES strings stand for the structures. Like-named read-outs stand apart in the source and are kept apart here.

From patent US10844032B2, “Substituted benzofuran, benzothiophene and indole Mcl-1 inhibitors” (Vanderbilt University, priority 2012, dated 2020) come the findings set out here.

recombinant Mcl-1 (residues 172-327), sequence (Q07820 172-327): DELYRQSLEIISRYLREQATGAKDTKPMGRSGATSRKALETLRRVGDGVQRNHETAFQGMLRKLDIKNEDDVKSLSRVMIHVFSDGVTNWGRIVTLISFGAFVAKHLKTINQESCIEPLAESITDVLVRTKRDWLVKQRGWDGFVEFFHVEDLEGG

For the molecule `O=C(O)c1sc2c(NCc3ccccc3)cccc2c1CCCOc1cccc2ccccc12` [Example 73, 7-(benzylamino)-3-(3-(naphthalen-1-yloxy)propyl)benzo[b]thiophene-2-carboxylic acid], the inhibitory constant (Ki) lay in the range of 1000 to 9990 nM.
The same measure, in the same setting: the result for `Cc1cc(OCCCc2c(C(=O)NS(=O)(=O)CCNC(=O)c3ccoc3C)[nH]c3ccccc23)cc(C)c1Cl` [Example 151, 3-(3-(4-chloro-3,5-dimethylphenoxy)propyl)-N-((2-(2-methylfuran-3-carboxamido)ethyl)sulfonyl)-1H-indole-2-carboxamide] reads 101 to 299 nM.
`CCn1nccc1-c1cccc2c(CCCOc3cc(C)c(Cl)c(C)c3)c(C(=O)NS(=O)(=O)c3ccccc3)[nH]c12` [Example 302, 3-(3-(4-chloro-3,5-dimethylphenoxy)propyl)-7-(1-ethyl-1H-pyrazol-5-yl)-N-(phenylsulfonyl)-1H-indole-2-carboxamide]: under setting [1], the Ki was at most 100 nM.
On to `Cc1cc(OCCCc2c(C(=O)NS(=O)(=O)CCNC(=O)c3c(C)nn(C)c3C)[nH]c3ccccc23)cc(C)c1Cl` [Example 183, 3-(3-(4-chloro-3,5-dimethylphenoxy)propyl)-N-((2-(1,3,5-trimethyl-1H-pyrazole-4-carboxamido)ethyl)sulfonyl)-1H-indole-2-carboxamide], for which the Ki fell in the range of 1000 to 9990 nM.
Take `Cc1ccccc1Cn1cccc1C(=O)NCCS(=O)(=O)NC(=O)c1[nH]c2cc(Cl)ccc2c1CCCOc1cc(C)c(Cl)c(C)c1` [Example 244, 6-chloro-3-(3-(4-chloro-3,5-dimethylphenoxy)propyl)-N-((2-(1-(2-methylbenzyl)-1H-pyrrole-2-carboxamido)ethyl)sulfonyl)-1H-indole-2-carboxamide]: the Ki lay within 301 to 500 nM.
As for `Cc1occc1C(=O)NCCS(=O)(=O)NC(=O)c1[nH]c2cc(Cl)ccc2c1CCCOc1cccc2ccccc12` [Example 229, 6-chloro-N-((2-(2-methylfuran-3-carboxamido)ethyl)sulfonyl)-3-(3-(naphthalen-1-yloxy)propyl)-1H-indole-2-carboxamide], the Ki fell in the range of 301 to 500 nM.
Consider `Cc1cc(OCCCc2c(C(=O)NS(=O)(=O)C3CC3)[nH]c3cc(Cl)ccc23)cc(C)c1Cl` [Example 65, 6-chloro-3-(3-(4-chloro-3,5-dimethylphenoxy)propyl)-N-(cyclopropylsulfonyl)-1H-indole-2-carboxamide], for which the Ki was in the range of 101 to 299 nM.
For the molecule `Cc1cc(OCCCc2c(C(=O)NS(=O)(=O)CCNC(=O)c3cccn3Cc3ccc(F)cc3)[nH]c3cc(Cl)ccc23)cc(C)c1Cl` [Example 242, 6-chloro-3-(3-(4-chloro-3,5-dimethylphenoxy)propyl)-N-((2-(1-(4-fluorobenzyl)-1H-pyrrole-2-carboxamido)ethyl)sulfonyl)-1H-indole-2-carboxamide], the Ki fell in the range of 101 to 299 nM.
For `Cc1cc(OCCCc2c(C(=O)NS(=O)(=O)c3cccc4ccccc34)oc3ccccc23)cc(C)c1Cl` [Example 28, 3-(3-(4-chloro-3,5-dimethylphenoxy)propyl)-N-(naphthalen-1-ylsulfonyl)benzofuran-2-carboxamide], the Ki was 1000 to 9990 nM.
Take `Cc1cc(OCCCc2c(C(=O)NS(=O)(=O)c3ccccc3)n(C)c3cc(Cl)ccc23)cc(C)c1Cl` [Example 269, 6-chloro-3-(3-(4-chloro-3,5-dimethylphenoxy)propyl)-1-methyl-N-(phenylsulfonyl)-1H-indole-2-carboxamide]: the Ki was 301 to 500 nM.
Still for that read-out and setting: next, `Cc1cc(OCCCc2c(C(=O)NS(=O)(=O)CCNS(=O)(=O)C3CCCCC3)[nH]c3ccccc23)cc(C)c1Cl` [Example 149, 3-(3-(4-chloro-3,5-dimethylphenoxy)propyl)-N-((2-(cyclohexanesulfonamido)ethyl)sulfonyl)-1H-indole-2-carboxamide]: 101 to 299 nM.
As to `O=C(NS(=O)(=O)Cc1ccccc1)c1sc2ccccc2c1CCCOc1cccc2ccccc12` [Example 62, N-(Benzylsulfonyl)-3-(3-(naphthalen-1-yloxy)propyl)benzo[b]thiophene-2-carboxamide], the Ki was 1000 to 9990 nM.
Regarding `CS(=O)(=O)NC(=O)c1[nH]c2cc(Cl)ccc2c1CCCOc1cccc2c1CCCC2` [Example 75, 6-chloro-N-(methylsulfonyl)-3-(3-((5,6,7,8-tetrahydronaphthalen-1-yl)oxy)propyl)-1H-indole-2-carboxamide], the Ki was 501 to 999 nM.
Same read-out and setting: next, `Cc1cc(OCCCc2c(C(=O)NS(=O)(=O)CCNC(=O)c3cccc(Oc4ccccc4)c3)[nH]c3cc(Cl)ccc23)cc(C)c1Cl` [Example 231, 6-chloro-3-(3-(4-chloro-3,5-dimethylphenoxy)propyl)-N-((2-(3-phenoxybenzamido)ethyl)sulfonyl)-1H-indole-2-carboxamide]: 101 to 299 nM; `CCc1cc(OCCCc2c(C(=O)NS(C)(=O)=O)[nH]c3ccccc23)ccc1Cl` [Example 44, 3-(3-(4-chloro-3-ethylphenoxy)propyl)-N-(methylsulfonyl)-1H-indole-2-carboxamide]: 1000 to 9990 nM; `Cc1cc(OCCCc2c(C(=O)NS(=O)(=O)c3ccc(OCc4ccccc4)cc3)[nH]c3cc(Cl)ccc23)cc(C)c1Cl` [Example 224, N-((4-(benzyloxy)phenyl)sulfonyl)-6-chloro-3-(3-(4-chloro-3,5-dimethylphenoxy)propyl)-1H-indole-2-carboxamide]: 301 to 500 nM.
Same read-out and setting: next, `Cc1ccoc1C(=O)NCCS(=O)(=O)NC(=O)c1[nH]c2ccccc2c1CCCOc1cc(C)c(Cl)c(C)c1` [Example 156]: 501 to 999 nM; `Cc1cc(OCCCc2c(C(=O)NS(=O)(=O)CCNC(=O)Cc3cn(C)c4ccccc34)[nH]c3ccccc23)cc(C)c1Cl` [Example 175, 3-(3-(4-chloro-3,5-dimethylphenoxy)propyl)-N-((2-(2-(1-methyl-1H-indol-3-yl)acetamido)ethyl)sulfonyl)-1H-indole-2-carboxamide]: 101 to 299 nM.
The same measure, in the same setting: the result for `COCc1nn(C)c(C)c1-c1cccc2c(CCCOc3cc(C)c(Cl)c(C)c3)c(C(=O)NS(=O)(=O)c3ccccc3)n(Cc3cccnc3)c12` [Example 128, 3-(3-(4-Chloro-3,5-dimethylphenoxy)propyl)-7-(3-(methoxymethyl)-1,5-dimethyl-1H-pyrazol-4-yl)-N-(phenylsulfonyl)-1-(pyridin-3-ylmethyl)-1H-indole-2-carboxamide] reads 101 to 299 nM; that for `Cc1cc(OCCCc2c(C(=O)NS(=O)(=O)CCNC(=O)c3ccc4[nH]ccc4c3)[nH]c3ccccc23)cc(C)c1Cl` [Example 178, N-((2-(1H-indole-5-carboxamido)ethyl)sulfonyl)-3-(3-(4-chloro-3,5-dimethylphenoxy)propyl)-1H-indole-2-carboxamide], 101 to 299 nM.
With `Cc1cc(OCCCc2c(C(=O)NS(=O)(=O)c3ccc(Oc4ccccc4)cc3)[nH]c3cc(Cl)ccc23)cc(C)c1Cl` [Example 222, 6-chloro-3-(3-(4-chloro-3,5-dimethylphenoxy)propyl)-N-((4-phenoxyphenyl)sulfonyl)-1H-indole-2-carboxamide], the Ki is 101 to 299 nM.
Regarding `CS(=O)(=O)NC(=O)c1[nH]c2ccccc2c1CCCOc1ccc2ccccc2c1` [Example 37, N-(methylsulfonyl)-3-(3-(naphthalen-2-yloxy)propyl)-1H-indole-2-carboxamide], the Ki fell in the range of 1000 to 9990 nM.
Turning to `Cc1ccsc1-c1cccc2c(CCCOc3cc(C)c(Cl)c(C)c3)c(C(=O)NS(=O)(=O)c3ccccc3)[nH]c12` [Example 99, 3-(3-(4-chloro-3,5-dimethylphenoxy)propyl)-7-(3-methylthiophen-2-yl)-N-(phenylsulfonyl)-1H-indole-2-carboxamide], the Ki under setting [1] was at most 100 nM.
`Cc1cc(OCCCc2c(C(=O)NS(=O)(=O)c3cccc(C(=O)NC4CCOCC4)c3)[nH]c3ccccc23)cc(C)c1Cl` [Example 202, 3-(3-(4-chloro-3,5-dimethylphenoxy)propyl)-N-((3-((tetrahydro-2H-pyran-4-yl)carbamoyl)phenyl)sulfonyl)-1H-indole-2-carboxamide]: the Ki lay within 101 to 299 nM.
Turning to `CS(=O)(=O)NC(=O)c1[nH]c2ccccc2c1CCCOc1cccc2c1CCCC2` [Example 46, N-(methylsulfonyl)-3-(3-((5,6,7,8-tetrahydronaphthalen-1-yl)oxy)propyl)-1H-indole-2-carboxamide], the Ki lay in the range of 1000 to 9990 nM.
On the same count and under the same terms, the result for `Cc1cc(OCCCc2c(C(=O)NS(=O)(=O)CCCNC(=O)CCc3cc(-c4ccccc4)n[nH]3)[nH]c3cc(Cl)ccc23)cc(C)c1Cl` [Example 257, 6-chloro-3-(3-(4-chloro-3,5-dimethylphenoxy)propyl)-N-((3-(3-(3-phenyl-1H-pyrazol-5-yl)propanamido)propyl)sulfonyl)-1H-indole-2-carboxamide] reads 301 to 500 nM.
The same measure, in the same setting: next, `Cc1cc(OCCCc2c(C(=O)NS(C)(=O)=O)n(C)c3cc(Cl)ccc23)cc(C)c1Cl` [Example 268, 6-chloro-3-(3-(4-chloro-3,5-dimethylphenoxy)propyl)-1-methyl-N-(methylsulfonyl)-1H-indole-2-carboxamide]: 501 to 999 nM; `Cc1cc(OCCCc2c(C(=O)NS(=O)(=O)CCNC(=O)c3cnn(Cc4ccccc4)c3)[nH]c3ccccc23)cc(C)c1Cl` [Example 184, N-((2-(1-benzyl-1H-pyrazole-4-carboxamido)ethyl)sulfonyl)-3-(3-(4-chloro-3,5-dimethylphenoxy)propyl)-1H-indole-2-carboxamide]: 1000 to 9990 nM.
For `Cc1cc(OCCCc2c(C(=O)NS(=O)(=O)CCNC(=O)C(C)C)[nH]c3cc(Cl)ccc23)cc(C)c1Cl` [Example 253, 6-chloro-3-(3-(4-chloro-3,5-dimethylphenoxy)propyl)-N-((2-isobutyramidoethyl)sulfonyl)-1H-indole-2-carboxamide], the inhibition constant Ki under setting [1] was at most 100 nM.
Regarding `Cc1cc(OCCCc2c(C(=O)NS(C)(=O)=O)[nH]c3cc(Cl)ccc23)ccc1Cl` [Example 53, 6-chloro-3-(3-(4-chloro-3-methylphenoxy)propyl)-N-(methylsulfonyl)-1H-indole-2-carboxamide], the Ki was 301 to 500 nM.
The same measure, in the same setting: the result for `Cc1cc(OCCCc2c(C(=O)NS(=O)(=O)CCNC(=O)c3cc(F)cc(F)n3)[nH]c3ccccc23)cc(C)c1Cl` [Example 191, 3-(3-(4-chloro-3,5-dimethylphenoxy)propyl)-N-((2-(4,6-difluoropicolinamido)ethyl)sulfonyl)-1H-indole-2-carboxamide] reads 1000 to 9990 nM.
